# Tested on: 994946-033-R-J1-PDC complex spheroid viability
# Experiment: Anticancer human tumor 994946-033-R-J1-PDC patient-derived melanoma cell line growth inhibition [POLQ]
# Conditions: for IC50: curve of first compound; for viability, T/C: stronger effect = lower value
# Experimental: Multicellular complex tumor spheroid response to Polymerase (POL) inhibitors (novobiocin, ART-558, RP6685) in combination with a variety of drugs and investigational agents in selected tumor cell lines
# The POL inhibitors (novobiocin, ART-558, and RP6685) were evaluated both individually and in combination with standard of care and investigational anticancer small molecules within a complex spheroid model of solid tumors. . Complex spheroids include a stromal component modeled by human endothelial cells (HUVEC) and fibroblasts modeled by human mesenchymal stem cells (MSCs). The concentration ranges selected for each drug and investigational agent were based upon clinically achievable concentrations if the clinical Cmax of the agent was known.
# Compounds. The drugs and investigational agents: novobiocin (NSC847541), ART-558 (NSC835418), RP-6685 (NSC848927), peposertib (NSC802822), ceralasertib (NSC780249), elimusertib (NSC800525), camonsertib (NSC841442), AZD-1390 (NSC803789), olaparib (NSC753686), talazoparib (NSC767125), rucaparib (NSC756644), sotorasib (NSC818433), MRTX-1133 (NSC836407), SN-38 (NSC673596), topotecan (NSC609699), epotoside (NSC141540), doxorubicin (NSC123127), gemcitabine (NSC613327), 5-fluorouracil (NSC19893), paclitaxel (NSC125973), vemurafenib (NSC761431), MSA-2 (NSC828583), SN-011 (NSC837082), adavosertib (NSC754352), prexasertib (NSC758257), carboplatin (NSC241240) and oxaliplatin (NSC266046), were obtained from the National Cancer Institute (NCI) Developmental Therapeutics Program Chemical Repository (21). The FDA-approved anticancer drug set is available from the Developmental Therapeutics Program at https://dtp.cancer.gov/organization/dscb/obtaining/. […] The stock solutions were prepared in dimethyl sulfoxide (DMSO, Sigma-Aldrich, St. Louis, MO, cat. D2650), except for the platinum compounds which were prepared in saline (Quality Biological, Gaithersburg, MD, cat. 114-055-101), at 800-fold the tested concentration and stored at -70 degrees C prior to their use. All drugs and investigational agents were tested over a range starting from a high concentration at or near the clinical Cmax and decreasing in half-log increments. If the clinical Cmax for an agent had not been determined, the highest concentration tested was 10 microM, except for SN-38, which was tested at a high concentration of 1 microM.
# Cell Culture. All cells were maintained in an incubator at 37 degrees C and 5% CO2 with 95% humidity. The PDC lines were cultured according to standard operating procedures established by the NCI PDMR (https://pdmr.cancer.gov). Table 3 of the manuscript, lists the cell lines along with the number of the three cell types plated to form the mct-spheroids and media for tumor cell growth. After thawing, all PDC lines, except 997537-175-T-J1-PDC and 415267-285-R-J2-PDC, were cultured in Matrigel-coated flasks prepared with a working solution of 1X Ham's F-12 nutrient mix, without supplementation (Thermo Fisher Scientific, cat. 11765054), 100 U/mL penicillin-streptomycin (Thermo Fisher Scientific, cat. 15140122), and 2.5% Matrigel (Corning Inc., Corning, NY, cat. 354248) for the first three passages. The two PDC lines 997537-175-T-J1-PDC and 415267-285-R-J2-PDC were cultured on uncoated flasks. The 857933-349-R-J2-PDC line was cultured in 6C/Colon 1B media containing advanced DMEM/F-12 (Thermo Fisher Scientific, cat. 12634028), 10 mM HEPES (Thermo Fisher Scientific, cat. 15630080), 1X GlutaMAX supplement (Thermo Fisher Scientific, cat. 35050061), 0.1 mg/mL primocin (InvivoGen, San Diego, CA, cat. ant-pm-2), 10% defined fetal bovine serum, heat inactivated (HyClone Laboratories Inc., Logan, UT, cat. SH30070.03HI), 50% L-WRN conditioned media (ATCC, cat. CRL-3276), 1.25 mM N-Acetyl-L-cysteine (Sigma-Aldrich, cat. A9165), 10 mM nicotinamide (Sigma-Aldrich, cat. N0636), 1X B-27 supplement (Thermo Fisher Scientific, cat. 17504044), 1X N-2 supplement (Thermo Fisher Scientific, cat. […]
# [1] = second compound 0.0316 µM, first compound 0.0316 µM
# [2] = second compound 0.0316 µM, first compound 0.1 µM
# [3] = second compound 0.0316 µM, first compound 0.316 µM
# [4] = second compound 0.0316 µM, first compound 1 µM
# [5] = second compound 0.0316 µM, first compound 3.16 µM
# [6] = second compound 0.0316 µM, first compound 10 µM
# [7] = second compound 0.1 µM, first compound 0.0316 µM
# [8] = second compound 0.1 µM, first compound 0.1 µM
# [9] = second compound 0.1 µM, first compound 0.316 µM
# [10] = second compound 0.1 µM, first compound 1 µM
# [11] = second compound 0.1 µM, first compound 3.16 µM
# [12] = second compound 0.1 µM, first compound 10 µM
# [13] = second compound 0.316 µM, first compound 0.0316 µM
# [14] = second compound 0.316 µM, first compound 0.1 µM
# [15] = second compound 0.316 µM, first compound 0.316 µM
# [16] = second compound 0.316 µM, first compound 1 µM
# [17] = second compound 0.316 µM, first compound 3.16 µM
# [18] = second compound 0.316 µM, first compound 10 µM
# [19] = second compound 1 µM, first compound 0.0316 µM
# [20] = second compound 1 µM, first compound 0.1 µM
# [21] = second compound 1 µM, first compound 0.316 µM
# [22] = second compound 1 µM, first compound 1 µM
# [23] = second compound 1 µM, first compound 3.16 µM
# [24] = second compound 1 µM, first compound 10 µM
# [25] = second compound 3.16 µM, first compound 0.0316 µM
# [26] = second compound 3.16 µM, first compound 0.1 µM
# [27] = second compound 3.16 µM, first compound 0.316 µM
# [28] = second compound 3.16 µM, first compound 1 µM
# [29] = second compound 3.16 µM, first compound 3.16 µM
# [30] = second compound 3.16 µM, first compound 10 µM
# [31] = second compound 10 µM, first compound 0.0316 µM
# [32] = second compound 10 µM, first compound 0.1 µM
# [33] = second compound 10 µM, first compound 0.316 µM
# [34] = second compound 10 µM, first compound 1 µM
# [35] = second compound 10 µM, first compound 3.16 µM
# [36] = second compound 10 µM, first compound 10 µM
# 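Further: spheroids exposed to drugs for 7 days.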
# 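Wherever viability, T/C is given: 100% = DMSO vehicle treated spheroids.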
compound,measurement,setting,value
CCCS(=O)(=O)Nc1ccc(F)c(C(=O)c2c[nH]c3ncc(-c4ccc(Cl)cc4)cc23)c1F + Cc1cccc(N(C)C(=O)C2C(O)CCN2c2nc(C)cc(C(F)(F)F)c2C#N)c1,IC50,second compound 0.0316 µM,6.38 µM
same,IC50,second compound 0.1 µM,6.17 µM
same,IC50,second compound 0.316 µM,6.51 µM
same,IC50,second compound 1 µM,4.95 µM
same,IC50,second compound 3.16 µM,6.02 µM
same,IC50,second compound 10 µM,5.54 µM
same,"viability, T/C",[1],67.5%
same,"viability, T/C",[2],102%
same,"viability, T/C",[3],94.3%
same,"viability, T/C",[4],81.1%
same,"viability, T/C",[5],85.7%
same,"viability, T/C",[6],27.1%
same,"viability, T/C",[7],91.3%
same,"viability, T/C",[8],110%
same,"viability, T/C",[9],67.4%
same,"viability, T/C",[10],115%
same,"viability, T/C",[11],88.2%
same,"viability, T/C",[12],22.4%
same,"viability, T/C",[13],78.7%
same,"viability, T/C",[14],101%
same,"viability, T/C",[15],95%
same,"viability, T/C",[16],104%
same,"viability, T/C",[17],99.3%
same,"viability, T/C",[18],22.9%
same,"viability, T/C",[19],64.8%
same,"viability, T/C",[20],71.4%
same,"viability, T/C",[21],81.6%
same,"viability, T/C",[22],93%
same,"viability, T/C",[23],63.7%
same,"viability, T/C",[24],20.9%
same,"viability, T/C",[25],103%
same,"viability, T/C",[26],76.3%
same,"viability, T/C",[27],97.3%
same,"viability, T/C",[28],84.9%
same,"viability, T/C",[29],95.3%
same,"viability, T/C",[30],17.4%
same,"viability, T/C",[31],88.4%
same,"viability, T/C",[32],84.6%
same,"viability, T/C",[33],112%
same,"viability, T/C",[34],95.6%
same,"viability, T/C",[35],80.9%
same,"viability, T/C",[36],17.1%
COc1ccc([C@@H](O)c2cc(-c3ncnc4cc(N5CCOCC5)ccc34)c(F)cc2Cl)nn1 + Cc1cccc(N(C)C(=O)C2C(O)CCN2c2nc(C)cc(C(F)(F)F)c2C#N)c1,IC50,second compound 0.0316 µM,4.06 µM
same,IC50,second compound 0.1 µM,6.54 µM
same,IC50,second compound 0.316 µM,2.25 µM
same,IC50,second compound 1 µM,6.16 µM
same,IC50,second compound 3.16 µM,2.65 µM
same,IC50,second compound 10 µM,6.2 µM
same,"viability, T/C",[1],108%
same,"viability, T/C",[2],95.1%
same,"viability, T/C",[3],106%
same,"viability, T/C",[4],64.1%
same,"viability, T/C",[5],60.7%
same,"viability, T/C",[6],32.5%
same,"viability, T/C",[7],90.9%
same,"viability, T/C",[8],105%
same,"viability, T/C",[9],93.3%
same,"viability, T/C",[10],78.5%
same,"viability, T/C",[11],71.6%
same,"viability, T/C",[12],38.4%
same,"viability, T/C",[13],118%
same,"viability, T/C",[14],94.1%
same,"viability, T/C",[15],103%
same,"viability, T/C",[16],60.4%
same,"viability, T/C",[17],45.6%
same,"viability, T/C",[18],45.1%
same,"viability, T/C",[19],104%
same,"viability, T/C",[20],96.6%
same,"viability, T/C",[21],82%
same,"viability, T/C",[22],105%
same,"viability, T/C",[23],60.9%
same,"viability, T/C",[24],42.1%
same,"viability, T/C",[25],115%
same,"viability, T/C",[26],125%
same,"viability, T/C",[27],101%
same,"viability, T/C",[28],60.5%
same,"viability, T/C",[29],56.8%
same,"viability, T/C",[30],38.6%
same,"viability, T/C",[31],74.9%
same,"viability, T/C",[32],101%
same,"viability, T/C",[33],60.3%
same,"viability, T/C",[34],76.6%
same,"viability, T/C",[35],62.7%
same,"viability, T/C",[36],41.1%

# From PubChem BioAssay AID1963827 (Molecular Pharmacology Branch, DTP, NCI, 2024)
